The numbers were not newly measured in patent US20040018228A1, “Compositions and methods for reducing scar tissue formation” (Afmedica, Inc., priority 2000, published 2004), which cites them from elsewhere.

The test system of one data set is keloids. To be noted: in vivo.

With `CO[C@H]1C[C@@H]2CC[C@@H](C)[C@@](O)(O2)C(=O)C(=O)N2CCCC[C@H]2C(=O)O[C@H]([C@H](C)C[C@@H]2CC[C@@H](O)[C@H](OC)C2)CC(=O)[C@H](C)/C=C(\C)[C@@H](O)[C@@H](OC)C(=O)[C@H](C)C[C@H](C)/C=C/C=C/C=C/1C` [sirolimus], the “solubility in aqueous solutions” value is recorded as “not to be readily soluble in aqueous solutions”. On to `C=CC[C@@H]1/C=C(\C)C[C@H](C)C[C@H](OC)[C@H]2O[C@@](O)(C(=O)C(=O)N3CCCC[C@H]3C(=O)O[C@H](/C(C)=C/[C@@H]3CC[C@@H](O)[C@H](OC)C3)[C@H](C)[C@@H](O)CC1=O)[C@H](C)C[C@@H]2OC` [tacrolimus], for which the treatment of keloids result in the data set on keloids is given as “effectively treat keloids”.
